Read-outs that look alike come from different tables or passages of the source.
Columns and labels:
[1] = tested on: STING pathway (IRF pathway reporter, THP1-Dual cells); assay: STING pathway activation, IRF pathway secreted luciferase (Lucia) reporter in THP1-Dual cells; type: cell-based; conditions: Quanti LUC luminescence, 24-hour and 48-hour plates prepared, duration not given, read-out: IRF3 (EC50 μM)
Protocol: (§1) STING pathway activation by the compounds described herein was measured using THP1-Dual™ cells. These cells are THP1 monocytes that have been modified to be reporters for the NF[…]B pathway (by inducing secreted embryonic alkaline phosphatase (SEAP) expression) and the IRF pathway (by inducing secreted luciferase (LUCIA)). Both of these pathways are activated by STING agonists in these cells.
(§2) THP1 Dual™ cells (obtained from Invivogen) are maintained in a cell growth medium that includes Roswell Park Memorial Institute medium (RPMI), 10% fetal calf serum (FCS), 100 U/ml Pen/Strep, 2 mM L-glut, 10 mM Hepes, and 1 mM sodium pyruvate. Prior to the assay, the cells were transferred to an assay medium that includes is RPMI, 5% FCS, 100 U/ml Pen/Strep, 2 mM L-glut, 10 mM Hepes, and 1 mM sodium pyruvate. Cells were then counted and evaluated for viability by trypan blue exclusion assay.
(§3) Compounds were dissolved in water or DMSO depending, for example, on their solubility in water or DMSO. The compounds are then diluted in the assay medium and plated into wells of a 384-well tissue culture plate in […] portions. Cells are then added in […] assay medium to result in a final cell concentration of 80,000 cells per well.
(§4) For each set of compounds, two plates were prepared: one plate that was subjected to a 24-hour assay duration, and one plate that was subjected to a 48-hour assay duration. The plates are incubated during their respective assay durations at 37° C., with 5% CO2.
(§5) To carry out the secreted embryonic alkaline phosphatase reporter, 10 µL of cell supernatant was mixed with 90 μL of QUANTI-Blue in a flat-bottom 384 well plate. The plates were incubated at 37′C for 1-2 hours. SEAP activity was measured using a spectrophotometer set at 620 nm. In the secreted luciferase (i.e., Lucia) assay, 10 µL of THP1-Blue™ WASG cell supernatant was plated, then 50 μL Quanti LUC Solution was added. Luminescence of the wells was then measured.

[2] = tested on: STING pathway (NFκB pathway reporter, THP1-Dual cells); assay: STING pathway activation, NFκB pathway secreted embryonic alkaline phosphatase (SEAP) reporter in THP1-Dual cells; type: cell-based; conditions: QUANTI-Blue, 620 nm, 24-hour and 48-hour plates prepared, duration not given
Protocol: as §1, §2, §3, §4, §5

EC50 ([1]; Homo sapiens, THP1-Dual)	EC50 [1]	Molecule	EC50 ([2]; Homo sapiens, THP1-Dual)	EC50 [2]	other results
50 to 100 µM	–	Nc1ncnc2c1ncn2[C@@H]1O[C@@H]2COP(=O)(O)N[C@H]3[C@@H](F)[C@H](n4cnc5c(N)ncnc54)O[C@@H]3COP(=O)(O)N[C@H]2[C@H]1F [Compound 78, Diammonium (1R,6S,8R,9R,10R,15S,17R,18R)-8,17-bis(6-amino-9H-purin-9-yl)-9,18-difluoro-3,12-dioxo-4,7,13,16-tetraoxa-2,11-diaza-3λ^s,12λ^s-diphosphatricyclo[13.3.0.0^6,10]octadecane-3,12-bis(olate)]	50 to 100 µM	–	–
10 to 49 µM	–	Nc1nc2c(ncn2[C@@H]2O[C@@H]3COP(=O)(S)N[C@H]4[C@@H](O)[C@H](n5cnc6c(=O)[nH]c(N)nc65)O[C@@H]4COP(=O)(O)N[C@H]3[C@H]2O)c(=O)[nH]1 (single isomer, unassigned) [Compound 76-0A1]	1 to 10 µM	–	–
–	10 to 49 µM	Nc1ncnc2c1ncn2[C@@H]1O[C@@H]2COP(=O)(S)N[C@H]3[C@@H](O)[C@H](n4cnc5c(N)ncnc54)O[C@@H]3COP(=O)(S)N[C@H]2[C@H]1O (single isomer, unassigned) [Compound 74-0B1]	–	50 to 100 µM	–
10 to 49 µM	–	Nc1nc2c(ncn2[C@@H]2O[C@@H]3COP(=O)(O)N[C@H]4[C@@H](O)[C@H](n5cnc6c(=O)[nH]c(N)nc65)O[C@@H]4COP(=O)(O)N[C@H]3[C@H]2O)c(=O)[nH]1 [Compound 75, Diammonium (1S,6S,8R,9R,10S,15S,17R,18R)-8,17-bis(2-amino-6-oxo-6,9-dihydro-1H-purin-9-yl)-9,18-dihydroxy-3,12-dioxo-4,7,13,16-tetraoxa-2,11-diaza-3λ^s,12λ^s-diphosphatricyclo[13.3.0.0^6,10]octadecane-3,12-bis(olate)]	10 to 49 µM	–	–
–	1 to 10 µM	Nc1nc2c(ncn2[C@@H]2O[C@@H]3COP(=O)(S)N[C@H]4[C@@H](O)[C@H](n5cnc6c(=O)[nH]c(N)nc65)O[C@@H]4COP(=O)(S)N[C@H]3[C@H]2O)c(=O)[nH]1 (single isomer, unassigned) [Compound 76-0A3]	–	< 1 µM	–
–	10 to 49 µM	Nc1nc2c(ncn2[C@@H]2O[C@@H]3COP(=O)(S)N[C@H]4[C@@H](O)[C@H](n5cnc6c(=O)[nH]c(N)nc65)O[C@@H]4COP(=O)(S)N[C@H]3[C@H]2O)c(=O)[nH]1 (single isomer, unassigned) [Compound 76-0B1]	–	50 to 100 µM	–
–	10 to 49 µM	Nc1nc2c(ncn2[C@@H]2O[C@@H]3COP(=O)(S)N[C@H]4[C@@H](O)[C@H](n5cnc6c(=O)[nH]c(N)nc65)O[C@@H]4COP(=O)(S)N[C@H]3[C@H]2O)c(=O)[nH]1 (single isomer, unassigned) [Compound 76-0A2]	–	10 to 49 µM	–

Further lines, the molecule ahead of its results:

Molecule	EC50 ([1]; Homo sapiens, THP1-Dual)	EC50 [1]	EC50 ([2]; Homo sapiens, THP1-Dual)	EC50 [2]	other results
Nc1ncnc2c1ncn2[C@@H]1O[C@@H]2CNP(=O)(S)O[C@H]3[C@@H](F)[C@H](n4cnc5c(N)ncnc54)O[C@@H]3CNP(=O)(S)O[C@H]2[C@H]1F (stereo partly drawn) [Compound 77, Diammonium [(1R,6R,8R,9R,10R,15R,17R,18R)-8,17-bis(6-amino-9H-purin-9-yl)-9,18-difluoro-3,12-dioxo-12-sulfanidyl-2,7,11,16-tetraoxa-4,13-diaza-3λ^s,12λ^s-diphosphatricyclo[13.3.0.0^6,10]octadecan-3-yl]sulfanide]	–	–	–	–	EC50 ([1]; Homo sapiens): 50 to 100 µM; EC50 ([2]; Homo sapiens): 50 to 100 µM
Nc1ncnc2c1ncn2[C@@H]1O[C@@H]2COP(=O)(S)N[C@H]3[C@@H](O)[C@H](n4cnc5c(N)ncnc54)O[C@@H]3COP(=O)(S)N[C@H]2[C@H]1O (single isomer, unassigned) [Compound 74-0A2]	–	1 to 10 µM	–	< 1 µM	–
Diammonium [(1S,6S,8R,9R,10S,15S,17R,18R)-8-(2-amino-6-oxo-6,9-dihydro-1H-purin-9-yl)-17-(6-amino-9H-purin-9-yl)-9,18-dihydroxy-3,12-dioxo-12-sulfanidyl-4,7,13,16-tetraoxa-2,11-diaza-3λ^s,12λ^s-diphosphatricyclo[13.3.0.0^6,10]octadecan-3-yl]sulfanide [Compound 72-0B2]	–	10 to 49 µM	–	10 to 49 µM	–
Nc1ncnc2c1ncn2[C@@H]1O[C@@H]2COP(=O)(S)N[C@H]3[C@@H](O)[C@H](n4cnc5c(N)ncnc54)O[C@@H]3COP(=O)(O)N[C@H]2[C@H]1O (single isomer, unassigned) [Compound 74-0B0]	10 to 49 µM	–	10 to 49 µM	–	–
Diammonium [(1S,6S,8R,9R,10S,15S,17R,18R)-8-(2-amino-6-oxo-6,9-dihydro-1H-purin-9-yl)-17-(6-amino-9H-purin-9-yl)-9,18-dihydroxy-3,12-dioxo-12-sulfanidyl-4,7,13,16-tetraoxa-2,11-diaza-3λ^s,12λ^s-diphosphatricyclo[13.3.0.0^6,10]octadecan-3-yl]sulfanide [Compound 72-0B1]	–	1 to 10 µM	–	50 to 100 µM	–
Diammonium [(1S,6S,8R,9R,10S,15S,17R,18R)-8-(2-amino-6-oxo-6,9-dihydro-1H-purin-9-yl)-17-(6-amino-9H-purin-9-yl)-9,18-dihydroxy-3,12-dioxo-12-sulfanidyl-4,7,13,16-tetraoxa-2,11-diaza-3λ^s,12λ^s-diphosphatricyclo[13.3.0.0^6,10]octadecan-3-yl]sulfanide [Compound 72-0A3]	–	1 to 10 µM	–	< 1 µM	–
Diammonium [(1S,6S,8R,9R,10S,15S,17R,18R)-8-(2-amino-6-oxo-6,9-dihydro-1H-purin-9-yl)-17-(6-amino-9H-purin-9-yl)-9,18-dihydroxy-3,12-dioxo-12-sulfanidyl-4,7,13,16-tetraoxa-2,11-diaza-3λ^s,12λ^s-diphosphatricyclo[13.3.0.0^6,10]octadecan-3-yl]sulfanide [Compound 72-0A2]	–	1 to 10 µM	–	1 to 10 µM	–
Nc1ncnc2c1ncn2[C@@H]1O[C@@H]2COP(=O)(O)N[C@H]3[C@@H](O)[C@H](n4cnc5c(N)ncnc54)O[C@@H]3COP(=O)(O)N[C@H]2[C@H]1O [Compound 73, Diammonium (1S,6S,8R,9R,10S,15S,17R,18R)-8,17-bis(6-amino-9H-purin-9-yl)-9,18-dihydroxy-3,12-dioxo-4,7,13,16-tetraoxa-2,11-diaza-3λ^s,12λ^s-diphosphatricyclo[13.3.0.0^6,10]octadecane-3,12-bis(olate)]	10 to 49 µM	–	1 to 10 µM	–	–
Nc1ncnc2c1ncn2[C@@H]1O[C@@H]2COP(=O)(S)N[C@H]3[C@@H](O)[C@H](n4cnc5c(N)ncnc54)O[C@@H]3COP(=O)(S)N[C@H]2[C@H]1O (single isomer, unassigned) [Compound 74-0A1]	–	1 to 10 µM	–	1 to 10 µM	–

Source: patent US10961270B2, “Compounds and compositions for treating conditions associated with sting activity” (Innate Tumor Immunity, Inc., priority 2016, dated 2021)
